The supplement of paper PMC9013687
± gives the standard deviation of the averaged measurements.

Key:
Danio rerio embryo [1] = experiment: EC20 Yolk sac size_Increase; higher = less potent; conditions: exposure time: 4 dpf
Description: (§1)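 Zebrafish embryos (UFZ-OBI strain) were exposed from 2 hpf for 48 h (2 dpf) or 96 h (4 dpf) at 28 °C; spontaneous tail coiling was scored at 25 hpf. Morphological features from automated image analysis (FishInspector), heart rate and locomotor response were fitted with drc models. Quantal endpoints were dichotomised at 2.5 SD from controls and fitted with a log-logistic model; heart rate, pigmentation and STC were normalised to the replicate control mean. Betamethasone was tested as betamethasone dipropionate, diflorasone as diflorasone diacetate.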

Danio rerio embryo [2] = experiment: EC20 Body length_Decrease; higher = less potent
Description: as §1

Danio rerio embryo [3] = experiment: EC20 Any effect; higher = less potent
Description: as §1

Danio rerio embryo [4] = experiment: EC10 Pericard size_Increase; higher = less potent; conditions: exposure time: 4 dpf
Description: as §1

Danio rerio embryo [5] = experiment: EC20 LMR dark; higher = less potent; conditions: exposure time: 4 dpf
Description: as §1

Danio rerio embryo [6] = experiment: EC50 Otolith-eye distance_Decrease; conditions: exposure time: 4 dpf
Description: as §1

Danio rerio embryo [7] = experiment: EC50 Curvature_Increase
Description: as §1

Danio rerio embryo [8] = experiment: EC10 LMR dark; higher = less potent; conditions: exposure time: 4 dpf
Description: as §1

Danio rerio embryo [9] = experiment: EC20 Pericard size_Increase; higher = less potent; conditions: exposure time: 4 dpf
Description: as §1

Danio rerio embryo [10] = experiment: EC10 Otolith-eye distance_Decrease; higher = less potent; conditions: exposure time: 4 dpf
Description: as §1

Danio rerio embryo [11] = experiment: EC10 Curvature_Increase; higher = less potent
Description: as §1

Danio rerio embryo [12] = test system: Danio rerio embryo
Description: as §1

Danio rerio embryo [13] = experiment: EC20 Eye-jaw distance_Decrease; higher = less potent; conditions: exposure time: 4 dpf
Description: as §1

Danio rerio embryo [14] = experiment: EC20 Bladder size_Decrease; higher = less potent; conditions: exposure time: 4 dpf
Description: as §1

Danio rerio embryo [15] = experiment: EC20 Otolith-eye distance_Decrease; higher = less potent; conditions: exposure time: 4 dpf
Description: as §1

Danio rerio embryo [16] = experiment: EC10 Bladder size_Decrease; higher = less potent; conditions: exposure time: 4 dpf
Description: as §1

Danio rerio embryo [17] = experiment: EC20 Curvature_Increase; higher = less potent
Description: as §1

Danio rerio embryo [18] = experiment: EC50 Pericard size_Increase; conditions: exposure time: 4 dpf
Description: as §1

Danio rerio embryo [19] = experiment: EC50 Body length_Decrease
Description: as §1

Danio rerio embryo [20] = experiment: EC50 Yolk sac size_Increase; conditions: exposure time: 4 dpf
Description: as §1

Danio rerio embryo [21] = experiment: EC10 Body length_Decrease; higher = less potent
Description: as §1

Danio rerio embryo [22] = conditions: exposure time: 4 dpf
Description: as §1

Danio rerio embryo [23] = experiment: EC10 Any effect; higher = less potent
Description: as §1

Danio rerio embryo [24] = experiment: spontaneous tail coiling frequency (coils/min/embryo); higher = more spontaneous movement; conditions: 25 hpf
Description: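 Spontaneous tail coilings of zebrafish embryos exposed from 2 hpf were recorded at 24-25 hpf in 1-min videos and detected by a KNIME workflow from grey-value variance. Betamethasone was tested as the dipropionate, diflorasone as the diacetate.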

Danio rerio embryo [25] = experiment: EC10 Yolk sac size_Increase; higher = less potent; conditions: exposure time: 4 dpf
Description: as §1

Danio rerio embryo [26] = experiment: EC50 Eye-jaw distance_Decrease; conditions: exposure time: 4 dpf
Description: as §1

Danio rerio embryo [27] = experiment: EC50 Bladder size_Decrease; conditions: exposure time: 4 dpf
Description: as §1

Danio rerio embryo [28] = experiment: EC10 Eye-jaw distance_Decrease; higher = less potent; conditions: exposure time: 4 dpf
Description: as §1

CN(Cc1cnc2nc(N)nc(N)c2n1)c1ccc(C(=O)N[C@@H](CCC(=O)O)C(=O)O)cc1 [Methotrexate]
Conditions	EC10 Bladder size Decrease [µM]	EC10 Eye-jaw distance Decrease [µM]	EC10 LMR dark [µM]	EC10 Otolith-eye distance Decrease [µM]	EC10 Pericard size Increase [µM]	EC10 Yolk sac size Increase [µM]	EC20 Bladder size Decrease [µM]	EC20 Eye-jaw distance Decrease [µM]	EC20 LMR dark [µM]	EC20 Otolith-eye distance Decrease [µM]	EC20 Pericard size Increase [µM]	EC20 Yolk sac size Increase [µM]	EC50 Bladder size Decrease [µM]	EC50 Eye-jaw distance Decrease [µM]	EC50 LMR dark [µM]	EC50 Otolith-eye distance Decrease [µM]	EC50 Pericard size Increase [µM]	EC50 Yolk sac size Increase [µM]
Danio rerio embryo [1]	–	–	–	–	–	–	–	–	–	–	–	44.7	–	–	–	–	–	–
Danio rerio embryo [4]	–	–	–	–	129	–	–	–	–	–	–	–	–	–	–	–	–	–
Danio rerio embryo [5]	–	–	–	–	–	–	–	–	206	–	–	–	–	–	–	–	–	–
Danio rerio embryo [6]	–	–	–	–	–	–	–	–	–	–	–	–	–	–	–	248	–	–
Danio rerio embryo [8]	–	–	186	–	–	–	–	–	–	–	–	–	–	–	–	–	–	–
Danio rerio embryo [9]	–	–	–	–	–	–	–	–	–	–	193	–	–	–	–	–	–	–
Danio rerio embryo [10]	–	–	–	116	–	–	–	–	–	–	–	–	–	–	–	–	–	–
Danio rerio embryo [13]	–	–	–	–	–	–	–	146	–	–	–	–	–	–	–	–	–	–
Danio rerio embryo [14]	–	–	–	–	–	–	99.9	–	–	–	–	–	–	–	–	–	–	–
Danio rerio embryo [15]	–	–	–	–	–	–	–	–	–	154	–	–	–	–	–	–	–	–
Danio rerio embryo [16]	95.7	–	–	–	–	–	–	–	–	–	–	–	–	–	–	–	–	–
Danio rerio embryo [18]	–	–	–	–	–	–	–	–	–	–	–	–	–	–	–	–	385	–
Danio rerio embryo [20]	–	–	–	–	–	–	–	–	–	–	–	–	–	–	–	–	–	173
Danio rerio embryo [22]	–	–	–	–	–	–	–	–	–	–	–	–	–	–	243	–	–	–
Danio rerio embryo [25]	–	–	–	–	–	20.2	–	–	–	–	–	–	–	–	–	–	–	–
Danio rerio embryo [26]	–	–	–	–	–	–	–	–	–	–	–	–	–	197	–	–	–	–
Danio rerio embryo [27]	–	–	–	–	–	–	–	–	–	–	–	–	108	–	–	–	–	–
Danio rerio embryo [28]	–	122	–	–	–	–	–	–	–	–	–	–	–	–	–	–	–	–

Conditions	EC10 Any effect [µM]	EC10 Body length Decrease [µM]	EC10 Curvature Increase [µM]	EC20 Any effect [µM]	EC20 Body length Decrease [µM]	EC20 Curvature Increase [µM]	EC50 Any effect [µM]	EC50 Body length Decrease [µM]	EC50 Curvature Increase [µM]	EC50 LMR ligth decrease [µM]	spontaneous tail coiling frequency
Danio rerio embryo [2], exposure time: 2 dpf	–	–	–	–	180	–	–	–	–	–	–
Danio rerio embryo [2], exposure time: 4 dpf	–	–	–	–	136	–	–	–	–	–	–
Danio rerio embryo [3], exposure time: 2 dpf	–	–	–	126	–	–	–	–	–	–	–
Danio rerio embryo [3], exposure time: 4 dpf	–	–	–	55.2	–	–	–	–	–	–	–
Danio rerio embryo [7], exposure time: 2 dpf	–	–	–	–	–	–	–	–	250	–	–
Danio rerio embryo [7], exposure time: 4 dpf	–	–	–	–	–	–	–	–	219	–	–
Danio rerio embryo [11], exposure time: 2 dpf	–	–	133	–	–	–	–	–	–	–	–
Danio rerio embryo [11], exposure time: 4 dpf	–	–	172	–	–	–	–	–	–	–	–
Danio rerio embryo [12], exposure time: 2 dpf	–	–	–	–	–	–	207	–	–	–	–
Danio rerio embryo [12], exposure time: 4 dpf	–	–	–	–	–	–	116	–	–	127	–
Danio rerio embryo [17], exposure time: 2 dpf	–	–	–	–	–	168	–	–	–	–	–
Danio rerio embryo [17], exposure time: 4 dpf	–	–	–	–	–	188	–	–	–	–	–
Danio rerio embryo [19], exposure time: 2 dpf	–	–	–	–	–	–	–	241	–	–	–
Danio rerio embryo [19], exposure time: 4 dpf	–	–	–	–	–	–	–	214	–	–	–
Danio rerio embryo [21], exposure time: 2 dpf	–	151	–	–	–	–	–	–	–	–	–
Danio rerio embryo [21], exposure time: 4 dpf	–	104	–	–	–	–	–	–	–	–	–
Danio rerio embryo [23], exposure time: 2 dpf	93.9	–	–	–	–	–	–	–	–	–	–
Danio rerio embryo [23], exposure time: 4 dpf	35.7	–	–	–	–	–	–	–	–	–	–
Danio rerio embryo [24], 43.5 µM	–	–	–	–	–	–	–	–	–	–	3.02
Danio rerio embryo [24], 65.2 µM	–	–	–	–	–	–	–	–	–	–	3.58 ± 0.63
Danio rerio embryo [24], 97.8 µM	–	–	–	–	–	–	–	–	–	–	2.42 ± 0.82
Danio rerio embryo [24], 146.7 µM	–	–	–	–	–	–	–	–	–	–	1.83 ± 0.26
Danio rerio embryo [24], 220.1 µM	–	–	–	–	–	–	–	–	–	–	2.71 ± 0.25
Danio rerio embryo [24], 330.1 µM	–	–	–	–	–	–	–	–	–	–	3.53 ± 1.3
Danio rerio embryo [24], 440.1 µM	–	–	–	–	–	–	–	–	–	–	3.51
